Key:
Assay in all cases: relative viability (nuclei count vs DMSO), 5 days (fraction); higher = more cells survive
NCI-H2405 = tested on: NCI-H2405
Summary of the method: (§1)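 Lung cancer cell lines were seeded in 1536-well plates and dosed by pin tool the next day, with either a single drug or a fixed anchor-drug dose combined with five library-drug doses (not always all listed) spaced in √10 steps. Five days later, one step fixed the cells and stained their nuclei (final 0.05% Triton X-100, 1% formaldehyde, 1 ug/ml Hoechst), and nuclei were counted on 4× images. Relative viability is the nuclei count in treated wells divided by the count in vehicle wells, and each value is the median of duplicate plates.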

EMC-BAC-2 = tested on: EMC-BAC-2
Summary of the method: as §1

NCI-H2085 = tested on: NCI-H2085
Summary of the method: as §1

NCI-H838 = tested on: NCI-H838
Summary of the method: as §1

NCI-H1793 = tested on: NCI-H1793
Summary of the method: as §1

NCI-H1395 = tested on: NCI-H1395
Summary of the method: as §1

LU99A = tested on: LU99A
Summary of the method: as §1

EPLC-272H = tested on: EPLC-272H
Summary of the method: as §1

NCI-H1651 = tested on: NCI-H1651
Summary of the method: as §1

NCI-H1944 = tested on: NCI-H1944
Summary of the method: as §1

NCI-H520 = tested on: NCI-H520
Summary of the method: as §1

HCC-827 = tested on: HCC-827
Summary of the method: as §1

NCI-H2087 = tested on: NCI-H2087
Summary of the method: as §1

NCI-H1563 = tested on: NCI-H1563
Summary of the method: as §1

SK-MES-1 = tested on: SK-MES-1
Summary of the method: as §1

NCI-H650 = tested on: NCI-H650
Summary of the method: as §1

NCI-H2023 = tested on: NCI-H2023
Summary of the method: as §1

ChaGo-K-1 = tested on: ChaGo-K-1
Summary of the method: as §1

LCLC-103H = tested on: LCLC-103H
Summary of the method: as §1

COR-L23 = tested on: COR-L23
Summary of the method: as §1

H3255 = tested on: H3255
Summary of the method: as §1

SMILES: COc1nc(C)cnc1NS(=O)(=O)c1cccnc1-c1ccc(-c2nnco2)cc1 [Zibotentan] + Cc1nc(Nc2ncc(C(=O)Nc3c(C)cccc3Cl)s2)cc(N2CCN(CCO)CC2)n1 [Dasatinib] (partner 0.075 µM)
- relative viability (NCI-H2405; first compound 0.08 µM): 0.238
- relative viability (NCI-H2405; first compound 0.253 µM): 0.193
- relative viability (NCI-H2405; first compound 0.8 µM): 0.218
- relative viability (NCI-H2405; first compound 2.53 µM): 0.212
- relative viability (EMC-BAC-2; first compound 0.08 µM): 0.338
- relative viability (EMC-BAC-2; first compound 0.8 µM): 0.295
- relative viability (EMC-BAC-2; first compound 2.53 µM): 0.369
- relative viability (NCI-H2085; first compound 0.08 µM): 0.24
- relative viability (NCI-H2085; first compound 0.253 µM): 0.227
- relative viability (NCI-H2085; first compound 0.8 µM): 0.211
- relative viability (NCI-H2085; first compound 2.53 µM): 0.213
- relative viability (NCI-H838; first compound 0.08 µM): 0.28
- relative viability (NCI-H838; first compound 0.253 µM): 0.233
- relative viability (NCI-H838; first compound 0.8 µM): 0.283
- relative viability (NCI-H838; first compound 2.53 µM): 0.305
- relative viability (NCI-H1793; first compound 0.08 µM): 0.345
- relative viability (NCI-H1793; first compound 0.253 µM): 0.363
- relative viability (NCI-H1793; first compound 0.8 µM): 0.406
- relative viability (NCI-H1793; first compound 2.53 µM): 0.379
- relative viability (NCI-H1395; first compound 0.08 µM): 0.409
- relative viability (NCI-H1395; first compound 0.253 µM): 0.403
- relative viability (NCI-H1395; first compound 0.8 µM): 0.409
- relative viability (NCI-H1395; first compound 2.53 µM): 0.407
- relative viability (LU99A; first compound 0.08 µM): 0.712
- relative viability (LU99A; first compound 0.253 µM): 0.694
- relative viability (LU99A; first compound 0.8 µM): 0.596
- relative viability (LU99A; first compound 2.53 µM): 0.487
- relative viability (EPLC-272H; first compound 0.08 µM): 0.375
- relative viability (EPLC-272H; first compound 0.253 µM): 0.287
- relative viability (EPLC-272H; first compound 0.8 µM): 0.331
- relative viability (EPLC-272H; first compound 2.53 µM): 0.33
- relative viability (NCI-H1651; first compound 0.08 µM): 0.462
- relative viability (NCI-H1651; first compound 0.253 µM): 0.318
- relative viability (NCI-H1651; first compound 0.8 µM): 0.445
- relative viability (NCI-H1651; first compound 2.53 µM): 0.451
- relative viability (NCI-H1944; first compound 0.08 µM): 0.193
- relative viability (NCI-H1944; first compound 0.253 µM): 0.211
- relative viability (NCI-H1944; first compound 0.8 µM): 0.221
- relative viability (NCI-H1944; first compound 2.53 µM): 0.224
- relative viability (NCI-H520; first compound 0.08 µM): 0.252
- relative viability (NCI-H520; first compound 0.253 µM): 0.222
- relative viability (NCI-H520; first compound 0.8 µM): 0.224
- relative viability (NCI-H520; first compound 2.53 µM): 0.237
- relative viability (HCC-827; first compound 0.08 µM): 0.394
- relative viability (HCC-827; first compound 0.253 µM): 0.267
- relative viability (HCC-827; first compound 0.8 µM): 0.247
- relative viability (HCC-827; first compound 2.53 µM): 0.384
- relative viability (NCI-H2087; first compound 0.08 µM): 0.851
- relative viability (NCI-H2087; first compound 0.253 µM): 0.573
- relative viability (NCI-H2087; first compound 0.8 µM): 0.923
- relative viability (NCI-H2087; first compound 2.53 µM): 0.814
- relative viability (NCI-H1563; first compound 0.08 µM): 0.493
- relative viability (NCI-H1563; first compound 0.253 µM): 0.435
- relative viability (NCI-H1563; first compound 0.8 µM): 0.476
- relative viability (NCI-H1563; first compound 2.53 µM): 0.397
- relative viability (SK-MES-1; first compound 0.08 µM): 0.333
- relative viability (SK-MES-1; first compound 0.253 µM): 0.261
- relative viability (SK-MES-1; first compound 0.8 µM): 0.473
- relative viability (SK-MES-1; first compound 2.53 µM): 0.363
- relative viability (NCI-H650; first compound 0.08 µM): 0.49
- relative viability (NCI-H650; first compound 0.253 µM): 0.418
- relative viability (NCI-H650; first compound 0.8 µM): 0.46
- relative viability (NCI-H650; first compound 2.53 µM): 0.468
- relative viability (NCI-H2023; first compound 0.08 µM): 0.568
- relative viability (NCI-H2023; first compound 0.253 µM): 0.339
- relative viability (NCI-H2023; first compound 0.8 µM): 0.476
- relative viability (NCI-H2023; first compound 2.53 µM): 0.64
- relative viability (ChaGo-K-1; first compound 0.08 µM): 0.604
- relative viability (ChaGo-K-1; first compound 0.253 µM): 0.646
- relative viability (ChaGo-K-1; first compound 0.8 µM): 0.498
- relative viability (ChaGo-K-1; first compound 2.53 µM): 0.626
- relative viability (LCLC-103H; first compound 0.08 µM): 0.47
- relative viability (LCLC-103H; first compound 0.253 µM): 0.562
- relative viability (LCLC-103H; first compound 0.8 µM): 0.451
- relative viability (LCLC-103H; first compound 2.53 µM): 0.531
- relative viability (COR-L23; first compound 0.08 µM): 0.502
- relative viability (COR-L23; first compound 0.253 µM): 0.485
- relative viability (COR-L23; first compound 0.8 µM): 0.488
- relative viability (COR-L23; first compound 2.53 µM): 0.5
- relative viability (H3255; first compound 0.08 µM): 0.406
- relative viability (H3255; first compound 0.253 µM): 0.311
- relative viability (H3255; first compound 0.8 µM): 0.632
- relative viability (H3255; first compound 2.53 µM): 0.325
